In brackets after ≈: the same amount, converted by molar mass.
Assays:
Assay in all cases: Trace liquid-based dilution MIC
Format in all cases: cell-based
[1] = test system: Trichophyton rubrum tia; conditions: MIC80 (OD 630 nm reduced by 80% or more), 30° C., 7 days; for MIC: Trichophyton rubrum, 168 h, read-out: In vitro Bacteriostatic Activity (MIC) Trichophyton rubrum tia
Source text: (§1) Trichophyton rubrum, microsporum gypseum, and trichophyton mentagrophytes were activated with a Sabouraud glucose agar culture medium, and the concentration of spores was adjusted with an RPM11640 culture solution to 1×10^35×10^3 CFU/mL.
(§2) In the present experiment, the minimum inhibitory concentrations of the ethanol extract of rhizoma anemarrhenae and the timosaponin enzymatically transformed product against five common pathogenic fungi were detected by through a trace liquid-based dilution method recommended by the Clinical and Laboratory Standards Institute and the Chinese pharmacopoeia. Fluconazole was used as a positive control drug.
(§3) A specific experimental method is as follows: candida albicans, cryptococcus neoformans, trichophyton rubrum, trichophyton mentagrophytes, and microsporum gypseum were inoculated to a 96-well plate, respectively. The drug with different concentrations was added to the culture, wherein final concentrations of the drug were 64 mg/L, 32 mg/L, 16 mg/L, 8 mg/L, 4 mg/L, 2 mg/L, 1 mg/L, and 0.5 mg/L, respectively. Fungi treated without drug was used as positive control. The candida albicans was cultured at 35° C. for 24 hours while the cryptococcus neoformans was cultured at 35° C. for 72 hours and the trichophyton rubrum, the trichophyton mentagrophytes, and the microsporum gypseum were cultured at 30° C. for 7 days. The OD value of each well under the wavelength of 630 nm was measured using an microplate reader. The lowest drug concentration with an OD value reduced by 80% or more compared with the positive control wells was considered as MIC8o, namely the drug concentration inducing 80% inhibition against fungus growth was inhibited by 80%. When the MIC80 value of the drug was higher than the maximum concentration of 64 mg/L, “>64 mg/L” was recorded.

[2] = test system: Microsporum gypseum mzc; conditions: MIC80 (OD 630 nm reduced by 80% or more), 30° C., 7 days; for MIC: Nannizzia gypsea, 168 h, read-out: In vitro Bacteriostatic Activity (MIC) Microsporum gypseum mzc
Source text: as §1, §2, §3

[3] = test system: trichophyton mentagrophytes t5a; conditions: MIC80 (OD 630 nm reduced by 80% or more), 30° C., 7 days; for MIC: Trichophyton mentagrophytes, T5A, 168 h, read-out: In vitro Bacteriostatic Activity (MIC) trichophyton mentagrophytes t5a
Source text: as §1, §2, §3

[4] = test system: C. albicans Y0109; conditions: Candida albicans, MIC80 (OD 630 nm reduced by 80% or more), 35° C., 24 hours, read-out: In vitro Bacteriostatic Activity (MIC) C. albicans Y0109
Source text: (§4) Spherical bacteria such as cryptococcus neoformans and candida albicans were taken, and activated with YEPD culture solution, and then the concentration of the bacteria solution was adjusted with RPM11640 culture solution to 1×10^3˜5 ×10^3 CFU/mL.
as §2, §3

[5] = test system: C. albicans SC5314; conditions: Candida albicans, MIC80 (OD 630 nm reduced by 80% or more), 35° C., 24 hours, read-out: In vitro Bacteriostatic Activity (MIC) C. albicans SC5314
Source text: as §4, §2, §3

[6] = test system: Cryptococcus neoformans 32609; conditions: MIC80 (OD 630 nm reduced by 80% or more), 35° C., 72 hours, read-out: In vitro Bacteriostatic Activity (MIC) Cryptococcus neoformans 32609
Source text: as §4, §2, §3

Question: What does the source list for `CC[C@@H]([C@H](C)O)n1ncn(-c2ccc(N3CCN(c4ccc(OC[C@@H]5CO[C@@](Cn6cncn6)(c6ccc(F)cc6F)C5)cc4)CC3)cc2)c1=O` [posaconazole]?
Answer: MIC [1]: 2 µg/mL (≈ 2.85 µM); MIC [2]: 0.25 µg/mL (≈ 0.357 µM); MIC [3]: 0.25 µg/mL (≈ 0.357 µM); MIC [4]: 1 µg/mL (≈ 1.43 µM); MIC [5]: 0.5 µg/mL (≈ 0.713 µM); MIC [6]: 0.25 µg/mL (≈ 0.357 µM)

Question: What does the source list for `C[C@H]1CC[C@@]2(OC1)O[C@H]1C[C@H]3[C@@H]4CC[C@@H]5C[C@@H](O[C@@H]6O[C@H](CO)[C@H](O)[C@H](O)[C@H]6O[C@@H]6O[C@H](CO)[C@@H](O)[C@H](O)[C@H]6O)CC[C@]5(C)[C@H]4CC[C@]3(C)[C@H]1[C@@H]2C` [timosaponin AIII]?
Answer: In vitro Bacteriostatic Activity (MIC) Trichophyton rubrum tia ([1]; listed as timosaponin Alll): 2 µg/mL; MIC [1]: 4 µg/mL (≈ 5.4 µM); In vitro Bacteriostatic Activity (MIC) Microsporum gypseum mzc ([2]; listed as timosaponin Alll): 2 µg/mL; MIC [2]: 4 µg/mL (≈ 5.4 µM); In vitro Bacteriostatic Activity (MIC) trichophyton mentagrophytes t5a ([3]; listed as timosaponin Alll): 2 µg/mL; MIC [3]: 4 µg/mL (≈ 5.4 µM); MIC [4]: 4 µg/mL (≈ 5.4 µM); MIC [5]: 4 µg/mL (≈ 5.4 µM); MIC [6]: 4 µg/mL (≈ 5.4 µM)

Question: How did the MIC [1] turn out when `OC(Cn1cncn1)(Cn1cncn1)c1ccc(F)cc1F` [fluconazole] was run?
Answer: 2 µg/mL (≈ 6.53 µM)

Question: What about the MIC [2] of the same compound?
Answer: 8 µg/mL (≈ 26.1 µM)

Question: And the MIC [3]?
Answer: 32 µg/mL (≈ 104 µM)

Question: And the MIC [4]?
Answer: 1 µg/mL (≈ 3.27 µM)

Question: What about the MIC [5] of the same compound?
Answer: 0.5 µg/mL (≈ 1.63 µM)

Question: And the MIC [6]?
Answer: 1 µg/mL (≈ 3.27 µM)

Reference: US20200368262A1, “Use of Timosaponin Enzymatically Transformed Product in Preparation of Drugs for Inhibiting Skin Superficial Fungi” (Shanghai University of Traditional Chinese Medicine, priority 2019, published 2020)
